Laboratory results published in ChEMBL document CHEMBL5257025, “Artemisinin-Derived Dimers: Potent Antimalarial and Anticancer Agents” (J Med Chem, 2016).

System: Plasmodium berghei
Assay: In vivo antimalarial activity against Plasmodium berghei infected mouse model assessed as survival time at 8 mg/kg, po in presence of Mefloquine hydrochloride

SMILES: CO[C@H]1O[C@@H]2O[C@@]3(C)CC[C@H]4[C@H](C)CC[C@@H]([C@H]1C)[C@@]24OO3
- survival time: 23 days
